A short description of data set [1]: T1 and T2 relaxivity measurement at 3T. It is filed as physicochemical. The protocol:
The T1 and T2 values of MT218 and Gd(HP-DO3A) solutions were determined using a 3T MRS 3000 scanner (MR Solutions, Guildford, UK). Solutions of MT218 were prepared at concentrations of 0, 0.25, 0.5, 1, and 2 mM in DPBS buffer (Gibco, Gaithersburg, MD). T1 values were measured using an inversion recovery-fast low angle shot (IR-FLASH) sequence (τ = 10 ms, TE = 4 ms, FA = 8°, echoes/frames = 128, FOV = 40 mm × 40 mm, slice thickness = 2 mm, number of averages = 1, time delay = 4,000 ms, sample period = 200, matrix = 256 × 128). T2 values were obtained using a multi-echo multi-slice (MEMS) sequence (TE = 15 ms, […], echoes = 10, FOV: 40 mm × 40 mm, slice thickness = 1 mm, number of averages = 1, matrix = 256 × 192). The r1 and r2 relaxivities were calculated from the slopes of 1/T1 and 1/T2 vs. Gd concentration plots, respectively.

For data set [2], the system named is Capan-1 flank tumor xenografts. Put plainly: MRMI of Capan-1 flank tumor xenografts (7T). It is filed as in vivo, human cells in female nu/nu mice. The protocol:
For flank xenograft models, 4 × 10^6 Capan-1 cells suspended in 100 μL of a 6 mg/mL Matrigel (Corning, Corning, NY) solution was injected subcutaneously into the flank of 8-week-old female nu/nu mice. The tumor bearing mice were imaged after tumor volumes exceeded 300 mm^3. For orthotopic intrapancreatic models, the pancreas of 4-week-old female nu/nu mice were surgically exposed via a ~10 mm incision in the left ventral abdomen and the application of gentle pressure to express the spleen and associated pancreatic tissue. 1 × 10^6 BxPC3-GFP-Luc or PANC-1-GFP-Luc cells suspended in 100 μL of a Matrigel solution (6 mg/mL) was injected into the pancreatic tissue using an insulin syringe with a 31G needle. Any leakage of cell suspension was lavaged with DPBS twice to prevent intraabdominal seeding PaCa cells. The peritoneal fascia was closed with absorbable stitches, and the dermis closed with stainless steel wound clips. Prior to imaging, growth of tumor was verified by bioluminescence imaging with intraperitoneal injection of d-luciferin on IVIS Spectrum system (Perkin Elmer, Waltham, MA).
(§1) Flank tumor-bearing mice were anesthetized and a tail vein catheter inserted. MR image acquisition was performed on a 7T Biospin (Bruker, Billerica, MA) preclinical small animal scanner with a volume radiofrequency coil. Axial images were obtained using a multi-spin multi-echo (MSME) MRI sequence (500 ms TR, 8.1 ms TE, 90° FA, 4.50 cm × 4.50 cm FOV, 1.50 mm slice thickness, 16 slices, 2 averages, 200 × 200 matrix, 0.0225 × 0.0225 cm/pixel resolution). Contrast agents were injected at a dose of 0.1 mmol/kg (100 μL) via the tail vein catheter, followed by a saline flush. Images of the tumors were acquired before contrast and at various time points after contrast administration. Gd(HP-DO3A) was used as a control.
Image files were exported and analyzed in Horus software. ROIs were drawn in the tumor, liver, kidney, and muscle. Muscle ROIs were taken from the muscle, with other structures (liver, kidney, tumor) identified after comparison with published images and comparison with anatomical landmarks or bioluminescent imaging. Pancreatic lesions were localized using the liver, kidney, and spleen as anatomical landmarks. […] Size of ROIs drawn for image analysis are summarized in Supplementary Table 1. The contrast-to-noise ratio of the tumor (CNR) was calculated using the following equation, where σnoise is the standard deviation of intensities from an ROI drawn outside of the mouse body:
CNR=Mean IntensityTumor-Mean IntensityMuscle/σnoise.
Image subtraction was performed on images adjusted to the same window and level in FIJI open-source software.
Image contrast was reported as fold enhancement of contrast to noise ratio of post-contrast images over pre-contrast images using Fold Enhancement = CNRpost/CNRpre. Statistical analysis of CNR was performed in Minitab Express (Minitab Inc., State College, PA). One-way ANOVA with Fisher Individual Tests for Differences of Means post-hoc testing was performed to determine statistical significance between >2 means (p < 0.05). Student's T test was used to determine statistical significance between 2 means (p < 0.05).

Data set [3] in a line: Spleen CNR in contrast-enhanced MRI. To be noted: BxPC3-GFP-Luc intrapancreatic model (n = 3), p > 0.05. It is filed as in vivo, nu/nu mice. Here is the method: as §1
Mice bearing intrapancreatic tumors were anesthetized and a tail vein catheter was inserted. Image acquisition was performed on a MR Solutions 3T MRS 3000 scanner with a mouse radiofrequency coil. […]
Image files were exported and analyzed in Horus software. […] The contrast-to-noise ratio of the tumor (CNR) was calculated using the following equation, where σnoise is the standard deviation of intensities from an ROI drawn outside of the mouse body: […]

No end group written: not given here.

Data on 1 substance can be found in publication PMC7661967, “Magnetic Resonance Molecular Imaging of Extradomain B Fibronectin Improves Imaging of Pancreatic Cancer Tumor Xenografts” (Frontiers in Oncology, 2020).

On to “ZD2-N3-Gd(HP-DO3A) (TVRTSAD; also: conjugated via N3 to Gd(HP-DO3A) contrast agent, end not given here) [MT218, small molecular conjugate of ZD2 peptide to a macrocyclic clinical MRI contrast agent Gd(HP-DO3A)]”, for which the “T1 relaxivity (r1)” value in data set [1] (0-2 mM MT218 in DPBS buffer, IR-FLASH) stood at 6.07 ± 1.13 s⁻¹ mM⁻¹. Besides, in data set [1] (0-2 mM MT218 in DPBS buffer, MEMS), the “T2 relaxivity (r2)” value was found to be 8.20 ± 0.18 s⁻¹ mM⁻¹. Also, the “T1 relaxivity relative to Gd(HP-DO3A)” value in data set [1] (targeted agent vs corresponding clinical agent) is reported as approximately 2 fold. Also, the “contrast enhancement in tumor periphery” value in data set [2] (0.1 mmol/kg, 5 min post-injection, MT218 vs Gd(HP-DO3A)) is listed as “Stronger contrast enhancement”. For the same substance, in data set [2] (0.1 mmol/kg, 15 min post-injection, MT218 n = 7), the “maximum increase of tumor CNR (post/pre)” value was found to be 4.8 fold. In addition, the “contrast enhancement in tumor core” value in data set [2] (0.1 mmol/kg, after injection) was “gradually increased”. The “enhancement in tumor periphery, subtraction images” value in data set [2] (0.1 mmol/kg, early time points (5–15 min post-contrast)) was “strong initial enhancement”. In data set [2] (0.1 mmol/kg, later time points (25–35 min) for MT218, all time points for Gd(HP-DO3A)), the “contrast enhancement throughout tumors, subtraction images” value is recorded as “robust tumor contrast enhancement throughout the tumors”. Also, the “duration for which CNR increase maintained” value in data set [2] (0.1 mmol/kg, post-injection) was “at least 35 min”. For the same substance, in data set [2] (Capan-1 flank, control Gd(HP-DO3A), p < 0.05), the “MT218 CNR relative to Gd(HP-DO3A) control” value was 273%. Also, in data set [2] (Capan-1 flank, vs Gd(HP-DO3A), p < 0.05), the “CNR relative to clinical agent” value was found to be 2.7 times. Moreover, the “spleen CNR, MT218 vs Gd(HP-DO3A)” value in data set [3] was “No significant (n.s, p>0.05) difference in spleen CNR”.
